In US6290974A, “Protein ingredient for carrying lipophilic nutrients” (priority 1998, dated 2001):
Where a name gives a salt, the structure may show the parent alone. Read-outs that look alike come from different tables or passages of the source. Blank lines part the entries; values can stand above or below the compound they belong to.

Key:
β-lactoglobulin (β-Lg) [1] = target: T1, β-lactoglobulin (β-Lg) (Bos taurus, UniProt P02754); assay: Fluorescence titration of β-Lg with ligands (Equation [1]; Kd and n); type: binding; conditions: for n (number of binding sites per molecule of protein), Table 1: 1 μM β-Lg, 50 mM phosphate pH 7.0, 23 °C, triplicate titrations (vitamin D2: five; ergosterol: single); for n, Table 2: β-Lg titration as in Example 3
T1 construct: Isolation of β-Lg from Whey; from tissue; host or cells: whey (milk), purified by bioselective adsorption on N-retinyl-Celite
T1 sequence (P02754 17-178): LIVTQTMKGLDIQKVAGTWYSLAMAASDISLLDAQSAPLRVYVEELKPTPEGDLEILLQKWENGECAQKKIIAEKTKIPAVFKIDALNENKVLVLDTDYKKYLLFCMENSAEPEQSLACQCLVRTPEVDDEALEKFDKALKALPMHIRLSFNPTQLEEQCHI
Procedure: (§1) Fluorescence spectra were recorded at 23 ° C. with a System 3 Scanning Spectrofluorometer (Optical Technology Devices, Inc., Elmsford, N.Y.) using the ratio mode. Excitation and emission spectra were obtained with 1 μM solutions of β-Lg in 50 mM sodium phosphate, pH 7.0, both in the presence and absence of 2 μM concentrations of the various ligands. Titration of β-Lg with the various ligands was quantified by measuring the fluorescence quenching of the protein tryptophanyl residues (excitation at 287 nm, emission measured at 332 nm). The spectrofluorometer cuvette contained 2.5 ml of 1 μM β-Lg in the phosphate buffer to which 2.5-μl increments of the ligand solution in ethanol or ethyl ether were added with a micropipette. Dufour et al., (1990) FEBS Lett. 277, 223. […] Cogan et al., (1976) Eur. J. Biochem. 65, 71.
(§2) The titration can also be followed by measuring the increase in vitamin D or cholesterol fluorescence that was due to energy transfer from the tryptophanyl residue. Thus, with excitation at 287 nm, emission was measured at 412 nm for vitamin D or 390 nm for cholesterol.
The titration data can be used to evaluate the equilibrium dissociation constant and the number of binding sites per monomer as has been previously described. Cogan et al., (1976) Eur. J. Biochem. 65, 71; Dufour and Haertle, (1991) Biochim. Biophys. Acta 1079, 316; Wang et al., (1997) J. Dairy Sci. 80, 1047. The linear regression equation
(§3) PT a=(1/n)[RT a/(1-a)]-Kd /n
(§4) is used to calculate n, the number of binding sites per molecule of protein and Kd, the apparent dissociation constant. In this equation, PT is total protein concentration, and RT is total ligand concentration.
Cho et al., (1994) J. Biol. Chem. 269, 11102; Dufour and Haertle, (1991) Biochim. Biophys. Acta 1079, 316; Wang et al., (1997) J. Dairy Sci. 80, 1047. […] Cho et al., (1994) J. Biol. Chem. 269, 11102; Dufour and Haertle, (1991) Biochim. Biophys. Acta 1079, 316; Wang et al., (1997) J. Dairy Sci. 80, 1047.
(§5) Possible binding of vitamin D3 to β-Lg was also investigated by recording the fluorescence emission at 412 nm as a function of the excitation wavelength for vitamin solutions with and without added β-Lg (FIG. 4). […] In a titration experiment, the protein fluorescence at 332 nm with excitation at 287 nm was determined as a function of vitamin D3 concentration (FIG. 3). […] Also, the increase of vitamin D3 fluorescence at 412 nm with excitation at 287 nm for varying vitamin concentrations can be plotted according to Equation [1] as shown in FIG. 5B.
Dufour and Haertle, (1991) Biochim. Biophys. Acta 1079, 316; Wang et al., (1997) J. Dairy Sci. 80, 1047.
The potential binding of both cholesterol and 7-dehydrocholesterol to β-Lg was examined by fluorescence spectroscopy, essentially as described above for vitamin D (Example 3).
The titration data were used to calculate the equilibrium dissociation constant (Kd) and the number of binding sites per β-Lg monomer (n), as described in Example 3.

β-lactoglobulin (β-Lg) [2] = target: T1, β-lactoglobulin (β-Lg); assay: Fluorescence emission/excitation spectra of β-Lg with and without ligand; type: binding; conditions: for energy transfer between protein tryptophanyl residues and ligand: emission 390 nm
Procedure: as §1, §2
Binding of hydrophobic ligands in proximity to Trp19 results in energy transfer between this protein residue and the ligand, and thus changes in the fluorescence emission spectra can be used to follow complex formation. Fluorescence emission spectra of β-Lg with and without bound vitamin D2 that result from excitation of tryptophanyl residues at 287 nm are shown in FIG. 1.
as §5
The potential binding of both cholesterol and 7-dehydrocholesterol to β-Lg was examined by fluorescence spectroscopy, essentially as described above for vitamin D (Example 3). […] A plot of the data that were obtained with varying cholesterol concentrations according to Equation [1] from Example 3 was similar to that for vitamin D3, shown in FIG. 5.
Studies were undertaken to evaluate whether other fat-soluble vitamins bind to β-Lg. Fluorescence emission spectra of β-Lg in the presence and absence of vitamin E, vitamin K1, or vitamin K2 were obtained essentially as described in Example 3.

β-lactoglobulin (β-Lg) [3] = target: T1, β-lactoglobulin (β-Lg); conditions: cited from earlier work
β-lactoglobulin (β-Lg) [4] = target: T1, β-lactoglobulin (β-Lg); assay: Fluorescence titration of β-Lg with linoleic acid, conjugated linoleic acid and its methyl ester (Trp19 enhancement); type: binding; conditions: 10 μM β-Lg
Description: The titration data can be used to evaluate the equilibrium dissociation constant and the number of binding sites per monomer as has been previously described. […] Biophys. […] The linear regression equation
as §3, §4

[5] = Kd, Table 2, β-Lg titration as in Example 3

SMILES: CC(C)CCC[C@@H](C)[C@H]1CC[C@H]2C3=CC=C4C[C@@H](O)CC[C@]4(C)[C@H]3CC[C@]12C [7-Dehydrocholesterol, 7-dehydrocholesterol]
Kd (β-lactoglobulin (β-Lg) [1]): 26.7 nM
n (number of binding sites per molecule of protein), Table 1 (β-lactoglobulin (β-Lg) [1]): 1.65 mol/mol of protein
energy transfer between protein tryptophanyl residues and ligand (β-lactoglobulin (β-Lg) [2]): energy was transferred

SMILES: CC(C)CCC[C@@H](C)[C@H]1CC[C@H]2[C@@H]3CC=C4C[C@@H](O)CC[C@]4(C)[C@H]3CC[C@]12C [Cholesterol, cholesterol]
Kd (β-lactoglobulin (β-Lg) [1]): 34.9 nM
n (number of binding sites per molecule of protein), Table 1 (β-lactoglobulin (β-Lg) [1]): 2.36 mol/mol of protein
Kd (β-lactoglobulin (β-Lg) [1]; [5]): 34.9 nM
n, Table 2 (β-lactoglobulin (β-Lg) [1]): 2.4 mol/mol β-LG
energy transfer between protein tryptophanyl residues and ligand (β-lactoglobulin (β-Lg) [2]): energy was transferred

SMILES: CCCCC/C=C\C/C=C\CCCCCCCC(=O)O [LA, linoleic acid]
n, Table 3, from Frapin et al. (β-lactoglobulin (β-Lg) [3]; From Frapin et al., J. Protein Chem. 12, 443 (1993)): 0.83 mol/mol β-LG
Kd (β-lactoglobulin (β-Lg) [3]; From Frapin et al., J. Protein Chem. 12, 443 (1993), read-out: Kd, Table 3, from Frapin et al.): 190 nM
Kd (β-lactoglobulin (β-Lg) [4]; 27 °C, read-out: order of Kd (text, Example 7)): ~100 nM
n, Table 3 (β-lactoglobulin (β-Lg) [4]; pH 7, 27 °C, enhancement at 332 nm, excitation 287 nm): 1.01 mol/mol β-LG
Kd (β-lactoglobulin (β-Lg) [4]; pH 7, 27 °C, enhancement at 332 nm, excitation 287 nm, read-out: Kd, Table 3): 143 nM

SMILES: Cc1c2ccncc2c(C)c2c1[nH]c1ccccc12 [ellipticine]
binding to β-Lg reported (in words) (β-lactoglobulin (β-Lg) [3]; in vitro): reported to bind

SMILES: C=C1CC[C@H](O)C/C1=C/C=C1\CCC[C@]2(C)[C@@H]([C@H](C)CCCC(C)C)CC[C@@H]12 [Vitamin D3, cholecalciferol]
Kd (β-lactoglobulin (β-Lg) [1]): 36 nM
n (number of binding sites per molecule of protein), Table 1 (β-lactoglobulin (β-Lg) [1]): 2.01 mol/mol of protein
Kd (β-lactoglobulin (β-Lg) [1]; [5]): 36 nM
molecules bound per molecule of protein (β-lactoglobulin (β-Lg) [1]; per molecule of protein / β-Lg monomer): 2 molecules
n, Table 2 (β-lactoglobulin (β-Lg) [1]): 2.0 mol/mol β-LG
ligand fluorescence at 412 nm with excitation around 287 nm in presence of β-Lg (β-lactoglobulin (β-Lg) [2]; 2 μM ligand, 1 μM β-Lg, pH 7.0, 23 °C): increased intensity

n, Table 2 (β-lactoglobulin (β-Lg) [1]): 1.2 mol/mol β-LG
SMILES: CCCCCCCCCCCCCCCC(=O)OC/C=C(C)/C=C/C=C(C)/C=C/C1=C(C)CCCC1(C)C [Retinyl palmitate (P), Retinyl palmitate]

SMILES: C=C1CC[C@H](OS(=O)(=O)O)C/C1=C/C=C1\CCC[C@]2(C)[C@@H]([C@H](C)CCCC(C)C)CC[C@@H]12 [Vitamin D3 sulfate, vitamin D3 sulfate]
Kd (β-lactoglobulin (β-Lg) [1]): 30.3 nM
mol bound per mol of protein (Example 4) (β-lactoglobulin (β-Lg) [1]): 2 mol~mol^-1
n (number of binding sites per molecule of protein), Table 1 (β-lactoglobulin (β-Lg) [1]): 1.74 mol/mol of protein

SMILES: CC1=CC(=O)c2ccccc2C1=O [Vitamin K3, menadione]
β-Lg fluorescence, 300 to 360 nm (β-lactoglobulin (β-Lg) [2]): No quenching
binding in the β-Lg calyx (β-lactoglobulin (β-Lg) [2]; inferred from absence of quenching): does not bind
